Assay results taken from PMC6409085, “Three odorant-binding proteins are involved in the behavioral response of Sogatella furcifera to rice plant volatiles” (PeerJ, 2019).
pIC50: −log10 of the molar value. Values joined by “and” are separate entries in the source; they are usually repeats but may differ in a detail not shown here. Equal values may be shown once.

What was measured:
Experiment in all cases: biochemical
Type in all cases: binding
SfurOBP1 = SfurOBP1 (Sogatella furcifera, UniProt V5T8N5); conditions: for Fluorescence competitive binding assay, fluorescence intensity: OBP1, three replicate columns
Sequence of SfurOBP1 (V5T8N5 entry or part of it): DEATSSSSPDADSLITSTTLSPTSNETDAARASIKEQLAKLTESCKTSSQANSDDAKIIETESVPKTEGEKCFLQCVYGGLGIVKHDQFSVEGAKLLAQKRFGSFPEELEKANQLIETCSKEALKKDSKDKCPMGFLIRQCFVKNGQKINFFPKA
Procedure: (§1) Thirty-six rice odorants ([He et al., 2014]; [Wang et al., 2017]) and 1-N-phenyl-naphthylamine (1-NPN) were purchased from Sigma-Aldrich (St Louis, MO, USA). These odorants and 1-NPN were dissolved in high-performance liquid chromatography (HPLC) purify grade methanol for 1.0 mM as work solution.
(§2) Fluorescence competitive binding assays were performed on Tecan Spark 10M (Tecan Group Ltd., Männedorf, Switzerland) with the F96 Black ELIAS Plate (Sangon) ([Khuhro et al., 2017]; [Liu et al., 2017]). The solutions were excited at 337 nm and emission spectra were recorded between 390 and 490 nm. First, to test the binding constants of 1-NPN to the SfurOBPs, a 2.0 µM solution of protein in 50 mM Tris-HCl (pH = 7.4) was titrated with 1 mM 1-NPN to achieve virous concentrations. Next, the competitive binding of each odorant was measured using the 1-NPN as fluorescent reporter and odorant as competitor. The concentrations of protein and 1-NPN were both 2.0 µM, the odorant added after protein and 1-NPN added into the well of ELIAS Plate for 2 min. The final concentrations of each competitor were 2, 4, 6, 8, 10, 12, 14, 16, 18 and 20 µM. After 2 min of odorant added, the fluorescence intensity was measured and recorded. The volume of mixed solution in each well was maintained at 250 µL. Each interaction was performed in triplicates.
(§3) GraphPad Prism 7.0 software (GraphPad Software, Inc., La Jolla, CA, USA) was used to calculated and generated the binding constants (K1−NPN) of 1-NPN to SfurOBPs and relative Scatchard plots ([Ban et al., 2003]; [Li et al., 2016]). Dissociation constant (Ki) of each odorant to SfurOBP was computed from the corresponding IC50 value (the half maximal inhibitory concentration), using the following equation: Ki=[IC50]/(1 + [1-NPN]/K1−NPN), where [1-NPN] is the free concentration of 1-NPN and K1−NPN is the dissociation constant of the complex protein/1-NPN.

SfurOBP11 = SfurOBP11 (Sogatella furcifera, UniProt V5T6E3)
Sequence of SfurOBP11 (V5T6E3 entry or part of it): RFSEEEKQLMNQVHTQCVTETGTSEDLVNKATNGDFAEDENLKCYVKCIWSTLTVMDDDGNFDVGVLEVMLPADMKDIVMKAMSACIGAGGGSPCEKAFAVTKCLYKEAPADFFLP
Procedure: as §1, §2, §3

SfurOBP2 = SfurOBP2 (Sogatella furcifera, UniProt V5T759)
Sequence of SfurOBP2 (V5T759 entry or part of it): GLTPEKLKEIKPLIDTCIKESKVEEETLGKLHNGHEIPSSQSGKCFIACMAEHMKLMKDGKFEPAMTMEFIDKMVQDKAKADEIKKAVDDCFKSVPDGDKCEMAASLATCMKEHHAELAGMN
Procedure: as §1, §2, §3

SfurOBP3 = SfurOBP3 (Sogatella furcifera, UniProt V5T818); conditions: for Fluorescence competitive binding assay, fluorescence intensity: OBP3, three replicate columns
Sequence of SfurOBP3 (V5T818 entry or part of it): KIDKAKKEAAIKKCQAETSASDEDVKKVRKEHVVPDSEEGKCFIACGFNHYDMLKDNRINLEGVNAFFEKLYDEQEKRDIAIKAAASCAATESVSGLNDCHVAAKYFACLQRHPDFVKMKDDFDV
Procedure: as §1, §2, §3

Cc1cc(C(C)(C)C)c(O)c(C(C)(C)C)c1 [2,6-di-tert-butyl-4-methylphenol]
pIC50 (SfurOBP1; SfurOBP1, protein and 1-NPN both 2.0 µM, competitor 2-20 µM, read-out: IC50): < 4.70
pIC50 (SfurOBP11; SfurOBP11, protein and 1-NPN both 2.0 µM, competitor 2-20 µM, read-out: IC50): 4.74
pIC50 (SfurOBP2; SfurOBP2, protein and 1-NPN both 2.0 µM, competitor 2-20 µM, read-out: IC50): < 4.70
pIC50 (SfurOBP3; SfurOBP3, protein and 1-NPN both 2.0 µM, competitor 2-20 µM, read-out: IC50): < 4.70

Cc1cc(C(C)(C)C)c(O)c(C(C)(C)C)c1 [BHT(2,6-di-tert-butyl-4-methylphenol)]
Fluorescence competitive binding assay, fluorescence intensity (SfurOBP1; ligand concentration 2 (μM)): 6030 and 6058 and 6096
Fluorescence competitive binding assay, fluorescence intensity (SfurOBP1; ligand concentration 4 (μM)): 6092 and 6318 and 6150
Fluorescence competitive binding assay, fluorescence intensity (SfurOBP1; ligand concentration 6 (μM)): 6520 and 6547 and 6496
Fluorescence competitive binding assay, fluorescence intensity (SfurOBP1; ligand concentration 8 (μM)): 6548 and 6679 and 6600
Fluorescence competitive binding assay, fluorescence intensity (SfurOBP1; ligand concentration 10 (μM)): 6739 and 6709 and 6666
Fluorescence competitive binding assay, fluorescence intensity (SfurOBP1; ligand concentration 12 (μM)): 6775 and 6778 and 6802
Fluorescence competitive binding assay, fluorescence intensity (SfurOBP1; ligand concentration 14 (μM)): 6847 and 6906 and 6978
Fluorescence competitive binding assay, fluorescence intensity (SfurOBP1; ligand concentration 16 (μM)): 6943 and 7135 and 6900
Fluorescence competitive binding assay, fluorescence intensity (SfurOBP1; ligand concentration 18 (μM)): 7439 and 7058 and 7176
Fluorescence competitive binding assay, fluorescence intensity (SfurOBP1; ligand concentration 20 (μM)): 7203 and 7412 and 7729
Fluorescence intensity, fluorescence competitive binding assay, OBP11 (SfurOBP11; ligand concentration 2, replicate 1): 23825
Fluorescence intensity, fluorescence competitive binding assay, OBP11 (SfurOBP11; ligand concentration 2, replicate 2): 22642
Fluorescence intensity, fluorescence competitive binding assay, OBP11 (SfurOBP11; ligand concentration 2, replicate 3): 21527
Fluorescence intensity, fluorescence competitive binding assay, OBP11 (SfurOBP11; ligand concentration 4, replicate 1): 20143
Fluorescence intensity, fluorescence competitive binding assay, OBP11 (SfurOBP11; ligand concentration 4, replicate 2): 21258
Fluorescence intensity, fluorescence competitive binding assay, OBP11 (SfurOBP11; ligand concentration 4, replicate 3): 22100
Fluorescence intensity, fluorescence competitive binding assay, OBP11 (SfurOBP11; ligand concentration 6, replicate 1): 20464
Fluorescence intensity, fluorescence competitive binding assay, OBP11 (SfurOBP11; ligand concentration 6, replicate 2): 20607
Fluorescence intensity, fluorescence competitive binding assay, OBP11 (SfurOBP11; ligand concentration 6, replicate 3): 21862
Fluorescence intensity, fluorescence competitive binding assay, OBP11 (SfurOBP11; ligand concentration 8, replicate 1): 19852
Fluorescence intensity, fluorescence competitive binding assay, OBP11 (SfurOBP11; ligand concentration 8, replicate 2): 19956
Fluorescence intensity, fluorescence competitive binding assay, OBP11 (SfurOBP11; ligand concentration 8, replicate 3): 20060
Fluorescence intensity, fluorescence competitive binding assay, OBP11 (SfurOBP11; ligand concentration 10, replicate 1): 19539
Fluorescence intensity, fluorescence competitive binding assay, OBP11 (SfurOBP11; ligand concentration 10, replicate 2): 18542
Fluorescence intensity, fluorescence competitive binding assay, OBP11 (SfurOBP11; ligand concentration 10, replicate 3): 20536
Fluorescence intensity, fluorescence competitive binding assay, OBP11 (SfurOBP11; ligand concentration 12, replicate 1): 18948
Fluorescence intensity, fluorescence competitive binding assay, OBP11 (SfurOBP11; ligand concentration 12, replicate 2): 19227
Fluorescence intensity, fluorescence competitive binding assay, OBP11 (SfurOBP11; ligand concentration 12, replicate 3): 18669
Fluorescence intensity, fluorescence competitive binding assay, OBP11 (SfurOBP11; ligand concentration 14, replicate 1): 16147
Fluorescence intensity, fluorescence competitive binding assay, OBP11 (SfurOBP11; ligand concentration 14, replicate 2): 16112
Fluorescence intensity, fluorescence competitive binding assay, OBP11 (SfurOBP11; ligand concentration 14, replicate 3): 15881
Fluorescence intensity, fluorescence competitive binding assay, OBP11 (SfurOBP11; ligand concentration 16, replicate 1): 16019
Fluorescence intensity, fluorescence competitive binding assay, OBP11 (SfurOBP11; ligand concentration 16, replicate 2): 15985
Fluorescence intensity, fluorescence competitive binding assay, OBP11 (SfurOBP11; ligand concentration 16, replicate 3): 16022
Fluorescence intensity, fluorescence competitive binding assay, OBP11 (SfurOBP11; ligand concentration 18, replicate 1): 16028
Fluorescence intensity, fluorescence competitive binding assay, OBP11 (SfurOBP11; ligand concentration 18, replicate 2): 15902
Fluorescence intensity, fluorescence competitive binding assay, OBP11 (SfurOBP11; ligand concentration 18, replicate 3): 15995
Fluorescence intensity, fluorescence competitive binding assay, OBP11 (SfurOBP11; ligand concentration 20, replicate 1): 15978
Fluorescence intensity, fluorescence competitive binding assay, OBP11 (SfurOBP11; ligand concentration 20, replicate 2): 15860
Fluorescence intensity, fluorescence competitive binding assay, OBP11 (SfurOBP11; ligand concentration 20, replicate 3): 15984
Fluorescence competitive binding assay, OBP2 (raw fluorescence reading) (SfurOBP2; ligand concentration 2 (unit not given), replicate column 1 of 3): 17266
Fluorescence competitive binding assay, OBP2 (raw fluorescence reading) (SfurOBP2; ligand concentration 2 (unit not given), replicate column 2 of 3): 17491
Fluorescence competitive binding assay, OBP2 (raw fluorescence reading) (SfurOBP2; ligand concentration 2 (unit not given), replicate column 3 of 3): 17183
Fluorescence competitive binding assay, OBP2 (raw fluorescence reading) (SfurOBP2; ligand concentration 4 (unit not given), replicate column 1 of 3): 14970
Fluorescence competitive binding assay, OBP2 (raw fluorescence reading) (SfurOBP2; ligand concentration 4 (unit not given), replicate column 2 of 3): 16711
Fluorescence competitive binding assay, OBP2 (raw fluorescence reading) (SfurOBP2; ligand concentration 4 (unit not given), replicate column 3 of 3): 16317
Fluorescence competitive binding assay, OBP2 (raw fluorescence reading) (SfurOBP2; ligand concentration 6 (unit not given), replicate column 1 of 3): 15662
Fluorescence competitive binding assay, OBP2 (raw fluorescence reading) (SfurOBP2; ligand concentration 6 (unit not given), replicate column 2 of 3): 16983
Fluorescence competitive binding assay, OBP2 (raw fluorescence reading) (SfurOBP2; ligand concentration 6 (unit not given), replicate column 3 of 3): 15070
Fluorescence competitive binding assay, OBP2 (raw fluorescence reading) (SfurOBP2; ligand concentration 8 (unit not given), replicate column 1 of 3): 15947
Fluorescence competitive binding assay, OBP2 (raw fluorescence reading) (SfurOBP2; ligand concentration 8 (unit not given), replicate column 2 of 3): 15853
Fluorescence competitive binding assay, OBP2 (raw fluorescence reading) (SfurOBP2; ligand concentration 8 (unit not given), replicate column 3 of 3): 15572
Fluorescence competitive binding assay, OBP2 (raw fluorescence reading) (SfurOBP2; ligand concentration 10 (unit not given), replicate column 1 of 3): 14398
Fluorescence competitive binding assay, OBP2 (raw fluorescence reading) (SfurOBP2; ligand concentration 10 (unit not given), replicate column 2 of 3): 14630
Fluorescence competitive binding assay, OBP2 (raw fluorescence reading) (SfurOBP2; ligand concentration 10 (unit not given), replicate column 3 of 3): 15652
Fluorescence competitive binding assay, OBP2 (raw fluorescence reading) (SfurOBP2; ligand concentration 12 (unit not given), replicate column 1 of 3): 14856
Fluorescence competitive binding assay, OBP2 (raw fluorescence reading) (SfurOBP2; ligand concentration 12 (unit not given), replicate column 2 of 3): 14795
Fluorescence competitive binding assay, OBP2 (raw fluorescence reading) (SfurOBP2; ligand concentration 12 (unit not given), replicate column 3 of 3): 14083
Fluorescence competitive binding assay, OBP2 (raw fluorescence reading) (SfurOBP2; ligand concentration 14 (unit not given), replicate column 1 of 3): 12632
Fluorescence competitive binding assay, OBP2 (raw fluorescence reading) (SfurOBP2; ligand concentration 14 (unit not given), replicate column 2 of 3): 13317
Fluorescence competitive binding assay, OBP2 (raw fluorescence reading) (SfurOBP2; ligand concentration 14 (unit not given), replicate column 3 of 3): 14001
Fluorescence competitive binding assay, OBP2 (raw fluorescence reading) (SfurOBP2; ligand concentration 16 (unit not given), replicate column 1 of 3): 12208
Fluorescence competitive binding assay, OBP2 (raw fluorescence reading) (SfurOBP2; ligand concentration 16 (unit not given), replicate column 2 of 3): 12493
Fluorescence competitive binding assay, OBP2 (raw fluorescence reading) (SfurOBP2; ligand concentration 16 (unit not given), replicate column 3 of 3): 12411
Fluorescence competitive binding assay, OBP2 (raw fluorescence reading) (SfurOBP2; ligand concentration 18 (unit not given), replicate column 1 of 3): 12799
Fluorescence competitive binding assay, OBP2 (raw fluorescence reading) (SfurOBP2; ligand concentration 18 (unit not given), replicate column 2 of 3): 12350
Fluorescence competitive binding assay, OBP2 (raw fluorescence reading) (SfurOBP2; ligand concentration 18 (unit not given), replicate column 3 of 3): 11202
Fluorescence competitive binding assay, OBP2 (raw fluorescence reading) (SfurOBP2; ligand concentration 20 (unit not given), replicate column 1 of 3): 12923
Fluorescence competitive binding assay, OBP2 (raw fluorescence reading) (SfurOBP2; ligand concentration 20 (unit not given), replicate column 2 of 3): 12557
Fluorescence competitive binding assay, OBP2 (raw fluorescence reading) (SfurOBP2; ligand concentration 20 (unit not given), replicate column 3 of 3): 10378
Fluorescence competitive binding assay, fluorescence intensity (SfurOBP3; ligand concentration 2): 62922 and 62019 and 61313
Fluorescence competitive binding assay, fluorescence intensity (SfurOBP3; ligand concentration 4): 80496 and 109930 and 48944
Fluorescence competitive binding assay, fluorescence intensity (SfurOBP3; ligand concentration 6): 58503 and 58107 and 50633
Fluorescence competitive binding assay, fluorescence intensity (SfurOBP3; ligand concentration 8): 41822 and 72799 and 53759
Fluorescence competitive binding assay, fluorescence intensity (SfurOBP3; ligand concentration 10): 69788 and 72654 and 85946
Fluorescence competitive binding assay, fluorescence intensity (SfurOBP3; ligand concentration 12): 60000 and 90914 and 74114
Fluorescence competitive binding assay, fluorescence intensity (SfurOBP3; ligand concentration 14): 74285 and 75475 and 71382
Fluorescence competitive binding assay, fluorescence intensity (SfurOBP3; ligand concentration 16): 52587 and 87313 and 65294
Fluorescence competitive binding assay, fluorescence intensity (SfurOBP3; ligand concentration 18): 52719 and 70169 and 103842
Fluorescence competitive binding assay, fluorescence intensity (SfurOBP3; ligand concentration 20): 122349 and 93664 and 80933
